The values that follow come from paper PMC10060354, “Discovery of a small molecule ligand of FRS2 that inhibits invasion and tumor growth” (Cellular Oncology, 2022).

Like-named read-outs stand apart in the source and are kept apart here.

The target of series [1] is T1, GB1-FRS2_PTB:FGFR_PEP (Homo sapiens, UniProt Q8WU20).
T1 construct: FRS2-PTB 11-140aa; 6xHis (N); made in house; host or cells: E. coli BL21 (DE3) for the protein
T1 sequence (Q8WU20 11-140): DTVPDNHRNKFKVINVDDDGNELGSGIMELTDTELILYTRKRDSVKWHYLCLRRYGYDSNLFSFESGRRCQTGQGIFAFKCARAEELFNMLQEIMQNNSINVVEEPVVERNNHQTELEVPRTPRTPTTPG
Nature of the series: nanoDSF competition assay with the FGFR peptide. Format: binding. The note with it: PTB domain:FGFR peptide 1:5; 500 μM compound. How it is done:
Purified FRS2_PTB or GB1_FRS2_PTB protein tagged with 6 × Histidine residues and the B1 immunoglobulin binding domain of the streptococcal protein G (GB1) were diluted in the protein buffer (100 mM sodium phosphate, 50 mM NaCl, 0.5 mM EDTA, 50 mM arginine, 1 mM TCEP, pH 7.0) to 30 μM, GB-1 to 40 μM. FGFR_PEP, compounds or paracetamol (PARA) as negative control were dissolved at 1 mM in the protein buffer supplemented with 10% DMSO. Compound and protein were mixed at 1:1 volume ratio yielding a final concentration of 15 μM and 20 μM for FRS2_PTB/GB1_FRS2_PTB and GB1, respectively, as well as 500 μM for FGFR_PEP or compounds. The mixture was incubated for 15 min. Each compound was measured in triplicates. Protein controls were measured in six replicates in the beginning. The quality of the screen was assessed by the Z-factor. nanoDSF validation studies were performed on a Prometheus® system in high sensitivity capillaries. Samples were heated with 1 °C/min from 20 to 95 °C. Each compound was measured in triplicates. GB1-FRS2_PTB and GB1 were diluted in the protein buffer (100 mM sodium phosphate, 50 mM NaCl, 0.5 mM EDTA, 50 mM arginine, 1 mM TCEP, pH 7.0) to 30 μM. Compounds 3.3, 3.4, 3.18 as well as the 3.18 analogues were dissolved in 100% DMSO at 50 or 100 mM and further diluted to 1 mM with a final […]. FGFR_PEP was dissolved at 1 mM in the protein buffer supplemented with 10% DMSO. Compound and protein were mixed at 1:1 volume ratio yielding final concentrations of 15 μM protein and 500 μM for the compounds. FGFR_PEP was measured against both GB1-FRS2_PTB and GB1, all other compounds only against GB1-FRS2_PTB. The mixture was incubated for 15 min before measurement. The data was analyzed for both the ratio of signals at 330 and 350 nm and at 350 nm alone. For the competition assays, the PTB domain and the FGFR peptide were mixed at a 1:5 ratio, and ligand competition was assayed in the presence of 500 μM compound.
(In general: In DSF a fluorescence change marks the thermal transition of the protein.)

For series [2], the system named is FRS2 (Y436) phosphorylation. Put plainly: Immunoblotting, FRS2 phosphorylation. The note with it: for basal and bFGF-induced phosphorylation of FRS2Y436 (result in words): RT-112 cells. Format: cell-based, human. Here is the method:
(§1) Cells were serum starved o.n. and 10 µM compound or 1 µM (BGJ398) were added 3 h before stimulation with 100 ng/ml bFGF for 15 min. Cells were lysed in RIPA buffer containing protease inhibitor cocktail and lysates resolved by SDS-PAGE. Membranes were probed with primary antibodies against phospho-FRS2, FRS2, phospho-ERK1/2, ERK1/2, pAKT, AKT and tubulin. Integrated density of immuno-reactive bands was quantified using Adobe Photoshop CS3. Integrated densities of phospho bands relative to non-phospho bands of same protein were calculated and plotted as fold-change relative to untreated control conditions. Compounds and BGJ398 were added in DMSO and corresponding DMSO concentrations were used in control samples.
(In general: In western blotting, separated proteins are transferred to a membrane and probed.)

A short description of series [3]: Cell viability (cytotoxicity, MTT) using HepG2. Format: cell-based, human. The note with it: human, HepG2 cells, 72 h, summary sheet, read-out: MTT (AC50) Conc at which 50% of maximum efficacy is reached. Put shortly: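 Compounds were tested at 8 concentrations in triplicate on HepG2 cells plated 24 h beforehand, with 72 h exposure in 1% DMSO medium. MTT was loaded 1 h before the end, solubilized in DMSO and read at 570 nm. Minimum effective concentration is the lowest concentration exceeding the significance level, given dose-response or two consecutive points above it.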

The test system of series [4] is ERK (pT202/Y204). Nature of the series: Immunoblotting, ERK phosphorylation. It is filed as cell-based, human. To be noted: for basal and bFGF-induced phosphorylation of ERK (result in words): DAOY, SW780, M059K, SKOV3, AGS, DMS114 and RT-112 cells, 10 µM compound or 1 µM BGJ398. How it is done: as §1
The nature of series [5]: In vivo bioavailability / PK after 1 mg/kg IV or 10 mg/kg PO. The arrangement: species or system Male ICR mice. The note with it: for Vd: read-out: Vss; for C0: read-out: C0 after IV administration. How it is done: In vivo bioavailability studies were performed by Pharmacology Discovery Services Taiwan, Ltd., (New Taipei City, Taiwan). Male ICR mice weighing 20—30 g were provided by BioLasco Taiwan (under Charles River Laboratories Licensee). Animals were acclimated for 3 days prior to use and were confirmed with good health. All animals were maintained in a hygienic environment with controlled temperature (20—24 °C), humidity (30%—70%) and 12 h light/dark cycles. Free access to sterilized standard lab diet [MFG (Oriental Yeast Co., Ltd., Japan)] and autoclaved tap water. A pharmacokinetic (PK) study was performed in male ICR mice following intravenous (IV) and oral (PO) administration of compound 7 and E12 and IV administration of the test compound 3.14. The three test compounds (7, E12 and 3.14) were formulated in 1% dimethyl sulfoxide (DMSO)/10% Solutol® HS-15/ phosphate buffered saline (PBS) at 0.2 mg/mL and 1 mg/mL for IV and PO administration, respectively. The dosing volumes were 5 ml/kg for IV and 10 ml/kg for PO. The dose was 1 mg/kg for IV and 10 mg/kg for PO routes.

Where [6] appears, read: male, ICR, mouse, plasma, iv, 1 mg/kg, IV, read-out: AUClast.
The mark [7] stands for this setting: male, ICR, mouse, plasma, iv, 1 mg/kg, mice, 1 mg/kg IV, read-out: AUClast after IV administration.
[8] abbreviates: male, ICR, mouse, plasma, 1 mg/kg, IV.
Setting [9] is: male, ICR, mouse, plasma, 10 mg/kg, PO.
Where [10] appears, read: male, ICR, mouse, mice, 1 mg/kg IV, plasma.

Usually AC50 stands for the concentration giving half of the maximal activity seen. By AUC(0-inf) is commonly meant the area under the concentration-time curve extrapolated to infinity. Low values mean less exposure, high ones more exposure. One may read the MRT as a mean duration of stay, worked out from the concentration-time curve. What is called half-life is how long it takes for the measured level to halve. Low values mean fast loss, high ones slow loss. For orientation: Tmax means the time at which the peak concentration occurs. For orientation: bioavailability means dose-corrected exposure relative to a reference, in per cent. Read a high bioavailability as good availability. `O=[N+]([O-])c1c(Cl)cc(O)c2c1C1C=CCC1C(c1ccc(Cl)cc1)N2` (stereo not shown) [Compound 7]: the “nanoDSF competition with FGFR peptide (result in words)” value in series [1] was “negative shift in compound-mixed samples”. For the same compound, the “basal and bFGF-induced phosphorylation of FRS2Y436 (result in words)” value in series [2] was “reduced basal and bFGF-induced phosphorylation”. The concentration at half-maximal activity (AC50) at 72 h in series [3] is 7.02 µM. The “basal and bFGF-induced phosphorylation of ERK (result in words)” value in series [4] was “inhibited basal and bFGF-induced phosphorylation”. The “AUC Extr (%)” value in series [5] (1 mg/kg, IV) is listed as 1.2%. Further, in series [5] (10 mg/kg, PO), the “AUC Extr (%)” value is 18.1%, the “AUC/D” value is 407 kg·ng·h/mL/mg and the “AUClast (H*ng/ml)” value stood at 3333 H*ng/ml. Moreover, in series [5] (setting [6]), the AUC(0-t) is 393 ng·h/mL. In addition, the AUC(0-t) in series [5] (setting [7]) worked out at 398 ng·h/mL. For the same compound, the AUC(0-t) in series [5] (male, ICR, mouse, plasma, po, 10 mg/kg, mice, 10 mg/kg PO, read-out: AUClast after PO administration) turned out to be 3330 ng·h/mL. Moreover, in series [5] (setting [8]), the AUC(0-inf) is 398 ng·h/mL, the mean residence time MRT is 0.29 h, the clearance was found to be 42 mL/min/kg and the half-life is 1.14 h. The Vd in series [5] (setting [8]) was 0.7 L/kg. Further, in series [5] (setting [9]), the AUC(0-inf) is 4070 ng·h/mL, the MRT is 4.71 h, the Tmax was 0.5 h and the bioavailability worked out at 85%. In series [5] (setting [9]), this compound showed a half-life of 3.83 h. In addition, the C0 in series [5] (setting [10]) is 2870 ng/mL. The Cmax in series [5] (male, ICR, mouse, mice, 10 mg/kg PO, plasma, read-out: Cmax (oral bioavailability) after PO administration) came to 1400 ng/mL. In series [5] (mice, 1 mg/kg IV), the “CL1/2 after IV administration” value came to 1.14 h. Besides, in series [5] (mice, 10 mg/kg PO), the “CL1/2 after PO administration” value stood at 3.83 h.

Turning to `N#Cc1c(Cl)cc(O)c2c1C1C=CCC1C(c1ccc(Cl)cc1)N2` (stereo not shown) [Compound 14], the “basal and bFGF-induced phosphorylation of FRS2Y436 (result in words)” value in series [2] was “reduced basal and bFGF-induced phosphorylation”. Besides, the half-maximal activity concentration (AC50) at 72 h in series [3] amounted to 5.24 µM. The “basal and bFGF-induced phosphorylation of ERK (result in words)” value in series [4] was “inhibited basal and bFGF-induced phosphorylation”.

With `CC(C)C[C@@H](CO)NCc1cc(O)c2cc(F)ccc2n1` [Compound 3.14], the “basal or bFGF-induced Y436 phosphorylation of FRS2 (result in words)” value in series [2] (DAOY or SW780 cells, 10 µM compound) was “not effective in SW780 cells”. Besides, in series [4] (SW780 and AGS cells, 10 µM), the “pERK (result in words)” value is reported as “significantly reduced pERK”. In addition, the “AUC Extr (%)” value in series [5] (1 mg/kg, IV) came to 0.5%. In addition, the AUC(0-t) in series [5] (setting [6]) was 410 ng·h/mL. In addition, in series [5] (setting [7]), the AUC(0-t) was determined as 413 ng·h/mL. In series [5] (setting [8]), the area under the curve AUC(0-inf) stood at 413 ng·h/mL, the MRT came to 0.52 h, the clearance stood at 40 mL/min/kg and the half-life was 1.55 h. In series [5] (setting [8]), the Vd is 1.3 L/kg. The C0 in series [5] (setting [10]) was 2700 ng/mL. Besides, the “CL1/2 after IV administration” value in series [5] (mice, 1 mg/kg IV) is 1.55 h.
